US9249129B2, “Morpholino substituted urea derivatives as mTOR inhibitors” (CELLZOME LIMITED, priority 2010, dated 2016)

Experiments:
Experiment in all cases: kinobeads assay with mass spectrometry detection of kinases (kinase selectivity profile)
Type in all cases: binding
kinases (kinome) [1] = target: T1, kinases (kinome) (Homo sapiens, UniProt Q9UQM7); conditions: CaMK2a (CAMK), IPI00550056
T1 construct: determined in kinobeads assays with mass spectrometry detection of kinases as described previously; endogenous in cells; host or cells: cell lysate
Excerpt: (§1) The protein kinase complement of the human genome (the kinome) was described previously (Manning et al., 2002. Science 298(5600):1912-1934). Sequence accession numbers are defined by the International Protein Index (IPI) (Kersey et al., 2004. Proteomics 4(7):1985-1988).

kinases (kinome) [2] = target: T2, kinases (kinome) (Homo sapiens, UniProt Q9H2G2); conditions: SLK (STE), IPI00022827
T2 construct: determined in kinobeads assays with mass spectrometry detection of kinases as described previously; endogenous in cells; host or cells: cell lysate
Excerpt: as §1

kinases (kinome) [3] = target: T3, kinases (kinome) (Homo sapiens, UniProt Q13627); conditions: DYRK1A (CMGC), IPI00014344
T3 construct: determined in kinobeads assays with mass spectrometry detection of kinases as described previously; endogenous in cells; host or cells: cell lysate
Excerpt: as §1

kinases (kinome) [4] = target: T4, kinases (kinome) (Homo sapiens, UniProt Q9BZL6); conditions: PKD2 (CAMK), IPI00009334
T4 construct: determined in kinobeads assays with mass spectrometry detection of kinases as described previously; endogenous in cells; host or cells: cell lysate
Excerpt: as §1

kinases (kinome) [5] = target: T5, kinases (kinome) (Homo sapiens, UniProt P06213); conditions: INSR (TK), IPI00025803
T5 construct: determined in kinobeads assays with mass spectrometry detection of kinases as described previously; endogenous in cells; host or cells: cell lysate
Excerpt: as §1

kinases (kinome) [6] = target: T6, kinases (kinome) (Homo sapiens, UniProt P51812); conditions: RSK2 (AGC), IPI00020898
T6 construct: determined in kinobeads assays with mass spectrometry detection of kinases as described previously; endogenous in cells; host or cells: cell lysate
Excerpt: as §1

kinases (kinome) [7] = target: T7, kinases (kinome) (Homo sapiens, UniProt Q13164); conditions: Erk5 (CMGC), IPI00910923
T7 construct: determined in kinobeads assays with mass spectrometry detection of kinases as described previously; endogenous in cells; host or cells: cell lysate
Excerpt: as §1

kinases (kinome) [8] = target: T8, kinases (kinome) (Homo sapiens, UniProt P78368); conditions: CK1g2 (CK1), IPI00297767
T8 construct: determined in kinobeads assays with mass spectrometry detection of kinases as described previously; endogenous in cells; host or cells: cell lysate
Excerpt: as §1

kinases (kinome) [9] = target: T9, kinases (kinome) (Homo sapiens, UniProt Q99759); conditions: MAP3K3 (STE), IPI00181703
T9 construct: determined in kinobeads assays with mass spectrometry detection of kinases as described previously; endogenous in cells; host or cells: cell lysate
Excerpt: as §1

kinases (kinome) [10] = target: T10, kinases (kinome) (Homo sapiens, UniProt Q16513); conditions: PKN2 (AGC), IPI00002804
T10 construct: determined in kinobeads assays with mass spectrometry detection of kinases as described previously; endogenous in cells; host or cells: cell lysate
Excerpt: as §1

kinases (kinome) [11] = target: T11, kinases (kinome) (Homo sapiens, UniProt Q8N752); conditions: CK1a2 (CK1), IPI00167096
T11 construct: determined in kinobeads assays with mass spectrometry detection of kinases as described previously; endogenous in cells; host or cells: cell lysate
Excerpt: as §1

kinases (kinome) [12] = target: T12, kinases (kinome) (Homo sapiens, UniProt P48426); conditions: PIP5K2A (Lipid Kinase), IPI00009688
T12 construct: determined in kinobeads assays with mass spectrometry detection of kinases as described previously; endogenous in cells; host or cells: cell lysate
Excerpt: as §1

kinases (kinome) [13] = target: T13, kinases (kinome) (Homo sapiens, UniProt Q86TW2); conditions: ADCK1 (Atypical), IPI00787836
T13 construct: determined in kinobeads assays with mass spectrometry detection of kinases as described previously; endogenous in cells; host or cells: cell lysate
Excerpt: as §1

kinases (kinome) [14] = target: T14, kinases (kinome) (Homo sapiens, UniProt Q13873); conditions: BMPR2 (TKL), IPI00783156
T14 construct: determined in kinobeads assays with mass spectrometry detection of kinases as described previously; endogenous in cells; host or cells: cell lysate
Excerpt: as §1

T5 sequence (P06213 28-1382): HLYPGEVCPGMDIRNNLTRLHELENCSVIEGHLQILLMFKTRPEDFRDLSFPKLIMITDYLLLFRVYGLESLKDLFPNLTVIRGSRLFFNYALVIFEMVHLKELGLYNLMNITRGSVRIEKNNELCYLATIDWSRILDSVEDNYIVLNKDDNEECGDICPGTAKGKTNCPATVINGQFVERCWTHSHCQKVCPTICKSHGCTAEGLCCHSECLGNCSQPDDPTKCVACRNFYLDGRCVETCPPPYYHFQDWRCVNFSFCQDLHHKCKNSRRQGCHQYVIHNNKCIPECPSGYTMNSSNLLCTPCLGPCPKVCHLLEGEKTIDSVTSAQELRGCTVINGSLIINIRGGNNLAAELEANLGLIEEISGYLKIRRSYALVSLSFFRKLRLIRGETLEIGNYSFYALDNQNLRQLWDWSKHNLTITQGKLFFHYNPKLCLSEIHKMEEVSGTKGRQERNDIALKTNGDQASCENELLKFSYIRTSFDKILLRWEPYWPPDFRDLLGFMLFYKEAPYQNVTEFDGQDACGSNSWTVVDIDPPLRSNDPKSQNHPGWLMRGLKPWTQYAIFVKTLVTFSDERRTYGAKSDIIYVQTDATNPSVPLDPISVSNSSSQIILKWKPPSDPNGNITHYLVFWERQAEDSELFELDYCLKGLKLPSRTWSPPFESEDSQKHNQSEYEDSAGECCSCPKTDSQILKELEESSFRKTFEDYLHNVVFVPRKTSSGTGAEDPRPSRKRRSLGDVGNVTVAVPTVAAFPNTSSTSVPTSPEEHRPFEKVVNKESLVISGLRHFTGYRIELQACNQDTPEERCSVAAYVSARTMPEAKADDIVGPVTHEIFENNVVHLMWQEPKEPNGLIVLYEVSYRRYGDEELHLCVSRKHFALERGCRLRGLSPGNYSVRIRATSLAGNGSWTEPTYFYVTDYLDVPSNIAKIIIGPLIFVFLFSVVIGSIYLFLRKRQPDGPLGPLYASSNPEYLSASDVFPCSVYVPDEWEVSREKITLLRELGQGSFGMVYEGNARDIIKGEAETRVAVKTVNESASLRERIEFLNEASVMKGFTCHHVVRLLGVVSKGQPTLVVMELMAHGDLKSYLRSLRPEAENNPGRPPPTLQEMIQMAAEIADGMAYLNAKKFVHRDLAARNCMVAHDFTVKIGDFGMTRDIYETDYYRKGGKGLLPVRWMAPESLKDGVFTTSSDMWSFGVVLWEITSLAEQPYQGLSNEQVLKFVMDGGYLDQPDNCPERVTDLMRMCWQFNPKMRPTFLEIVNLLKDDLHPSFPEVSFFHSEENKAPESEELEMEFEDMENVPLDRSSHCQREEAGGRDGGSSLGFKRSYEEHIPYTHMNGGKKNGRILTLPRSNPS
T10 sequence (Q16513 whole entry): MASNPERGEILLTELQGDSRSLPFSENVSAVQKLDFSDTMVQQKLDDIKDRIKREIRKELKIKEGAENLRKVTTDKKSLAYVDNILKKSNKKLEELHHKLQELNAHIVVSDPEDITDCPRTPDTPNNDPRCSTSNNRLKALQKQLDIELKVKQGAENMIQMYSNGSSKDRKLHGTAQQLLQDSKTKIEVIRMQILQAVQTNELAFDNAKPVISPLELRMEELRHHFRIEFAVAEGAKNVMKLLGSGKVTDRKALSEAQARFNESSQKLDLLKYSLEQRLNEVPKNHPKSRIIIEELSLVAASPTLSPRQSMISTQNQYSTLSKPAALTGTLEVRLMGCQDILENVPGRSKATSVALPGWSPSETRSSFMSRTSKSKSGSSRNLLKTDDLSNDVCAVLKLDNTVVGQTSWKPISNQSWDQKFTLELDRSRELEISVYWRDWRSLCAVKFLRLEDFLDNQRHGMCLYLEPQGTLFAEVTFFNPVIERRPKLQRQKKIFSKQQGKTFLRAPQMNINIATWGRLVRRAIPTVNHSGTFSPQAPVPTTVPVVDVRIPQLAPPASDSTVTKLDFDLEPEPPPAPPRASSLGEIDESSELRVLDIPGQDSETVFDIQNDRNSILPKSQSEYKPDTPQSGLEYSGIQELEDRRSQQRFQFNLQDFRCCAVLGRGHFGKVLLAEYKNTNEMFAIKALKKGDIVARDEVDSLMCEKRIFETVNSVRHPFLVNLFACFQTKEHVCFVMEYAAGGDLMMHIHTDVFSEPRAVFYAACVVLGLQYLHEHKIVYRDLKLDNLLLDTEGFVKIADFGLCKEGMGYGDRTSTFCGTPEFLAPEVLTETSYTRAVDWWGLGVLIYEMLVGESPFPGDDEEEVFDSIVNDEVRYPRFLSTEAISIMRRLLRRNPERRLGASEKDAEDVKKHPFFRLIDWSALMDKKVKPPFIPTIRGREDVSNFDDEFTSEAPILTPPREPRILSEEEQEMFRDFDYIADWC
T4 sequence (Q9BZL6 whole entry): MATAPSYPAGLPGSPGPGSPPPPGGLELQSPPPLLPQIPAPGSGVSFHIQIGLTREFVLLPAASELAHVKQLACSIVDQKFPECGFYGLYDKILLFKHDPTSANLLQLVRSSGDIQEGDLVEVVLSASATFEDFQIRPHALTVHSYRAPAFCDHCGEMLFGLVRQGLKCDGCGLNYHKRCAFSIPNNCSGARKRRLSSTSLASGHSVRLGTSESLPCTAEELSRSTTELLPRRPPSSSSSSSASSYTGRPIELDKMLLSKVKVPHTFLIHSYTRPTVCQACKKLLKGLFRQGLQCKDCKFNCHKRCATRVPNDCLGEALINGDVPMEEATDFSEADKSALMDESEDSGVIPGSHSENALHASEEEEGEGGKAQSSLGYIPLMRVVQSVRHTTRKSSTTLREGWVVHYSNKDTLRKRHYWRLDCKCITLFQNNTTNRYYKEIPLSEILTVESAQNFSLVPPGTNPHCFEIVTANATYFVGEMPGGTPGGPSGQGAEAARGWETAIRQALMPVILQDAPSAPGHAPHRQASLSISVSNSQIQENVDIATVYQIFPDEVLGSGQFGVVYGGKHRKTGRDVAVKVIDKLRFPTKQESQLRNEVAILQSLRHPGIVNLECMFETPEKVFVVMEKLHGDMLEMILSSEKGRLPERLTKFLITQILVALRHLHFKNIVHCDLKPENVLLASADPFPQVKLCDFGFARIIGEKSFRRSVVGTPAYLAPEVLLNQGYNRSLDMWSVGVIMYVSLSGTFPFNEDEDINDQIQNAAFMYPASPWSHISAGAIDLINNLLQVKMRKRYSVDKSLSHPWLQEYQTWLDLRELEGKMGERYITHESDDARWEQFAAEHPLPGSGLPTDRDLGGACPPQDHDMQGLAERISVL
T9 sequence (Q99759 whole entry): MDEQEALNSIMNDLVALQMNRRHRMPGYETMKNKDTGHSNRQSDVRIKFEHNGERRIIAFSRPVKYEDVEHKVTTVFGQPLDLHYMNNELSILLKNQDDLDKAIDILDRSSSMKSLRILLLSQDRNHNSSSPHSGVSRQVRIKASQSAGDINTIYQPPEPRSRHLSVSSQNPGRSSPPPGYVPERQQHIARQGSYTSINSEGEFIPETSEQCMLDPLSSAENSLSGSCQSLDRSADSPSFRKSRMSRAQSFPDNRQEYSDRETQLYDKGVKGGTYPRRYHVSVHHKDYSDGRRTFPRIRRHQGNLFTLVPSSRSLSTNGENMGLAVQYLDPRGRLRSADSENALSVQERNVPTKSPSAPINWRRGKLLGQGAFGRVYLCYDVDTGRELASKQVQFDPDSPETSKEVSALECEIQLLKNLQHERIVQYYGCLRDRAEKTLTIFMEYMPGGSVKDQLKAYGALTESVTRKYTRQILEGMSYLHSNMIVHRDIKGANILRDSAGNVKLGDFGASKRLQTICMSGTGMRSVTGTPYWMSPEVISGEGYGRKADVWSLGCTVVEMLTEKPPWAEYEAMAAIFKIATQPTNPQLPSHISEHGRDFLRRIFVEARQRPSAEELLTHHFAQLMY
T6 sequence (P51812 whole entry): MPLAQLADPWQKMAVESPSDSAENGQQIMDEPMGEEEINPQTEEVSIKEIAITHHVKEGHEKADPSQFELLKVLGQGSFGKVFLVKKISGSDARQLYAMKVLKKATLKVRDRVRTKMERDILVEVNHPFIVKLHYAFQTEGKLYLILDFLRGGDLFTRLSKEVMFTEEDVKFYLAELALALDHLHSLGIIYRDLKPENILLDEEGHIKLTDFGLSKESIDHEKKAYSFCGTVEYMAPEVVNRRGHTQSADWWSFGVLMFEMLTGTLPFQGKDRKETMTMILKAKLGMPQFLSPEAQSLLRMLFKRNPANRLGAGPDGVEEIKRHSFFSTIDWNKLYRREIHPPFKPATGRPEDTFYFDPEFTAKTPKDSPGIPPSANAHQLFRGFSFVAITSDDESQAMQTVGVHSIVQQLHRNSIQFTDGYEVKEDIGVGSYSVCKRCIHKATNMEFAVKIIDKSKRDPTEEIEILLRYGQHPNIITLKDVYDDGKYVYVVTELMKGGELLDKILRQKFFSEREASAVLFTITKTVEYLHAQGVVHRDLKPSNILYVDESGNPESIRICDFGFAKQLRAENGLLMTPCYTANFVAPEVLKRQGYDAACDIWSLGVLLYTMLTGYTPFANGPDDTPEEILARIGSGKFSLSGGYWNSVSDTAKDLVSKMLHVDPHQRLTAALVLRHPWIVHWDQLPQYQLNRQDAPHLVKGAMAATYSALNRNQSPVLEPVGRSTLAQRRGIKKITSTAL
T12 sequence (P48426 whole entry): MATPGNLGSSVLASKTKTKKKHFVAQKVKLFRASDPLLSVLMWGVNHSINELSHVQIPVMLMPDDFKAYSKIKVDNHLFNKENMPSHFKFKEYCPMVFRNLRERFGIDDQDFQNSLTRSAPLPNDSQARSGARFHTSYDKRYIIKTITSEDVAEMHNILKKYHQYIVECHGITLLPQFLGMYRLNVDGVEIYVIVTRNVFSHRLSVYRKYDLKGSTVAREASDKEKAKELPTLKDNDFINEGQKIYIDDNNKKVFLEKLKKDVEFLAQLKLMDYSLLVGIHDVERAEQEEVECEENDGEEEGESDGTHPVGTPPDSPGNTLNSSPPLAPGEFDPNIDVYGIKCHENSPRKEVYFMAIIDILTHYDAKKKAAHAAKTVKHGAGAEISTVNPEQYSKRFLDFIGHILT

Row | IC50 (kinases (kinome) [4]) | IC50 (kinases (kinome) [5]) | IC50 (kinases (kinome) [6]) | IC50 (kinases (kinome) [9]) | IC50 (kinases (kinome) [10]) | Structure (SMILES) | also measured
1 | – | – | – | – | – | CCNC(=O)Nc1ccc(-c2cc(-c3ccccc3C#N)nc(N3CCOC[C@@H]3C)n2)cc1 [Example 8, (S)-1-(4-(6-(2-cyanophenyl)-2-(3-methylmorpholino)pyrimidin-4-yl)phenyl)-3-ethylurea] | IC50 (kinases (kinome) [1]): > 10 µM
2 | > 10 µM | > 10 µM | > 10 µM | – | – | C[C@H]1COCCN1c1nc(-c2ccc(NC(=O)NC3CC3)cc2)cc(-c2ccccc2S(C)(=O)=O)n1 [Example 4, (S)-1-cyclopropyl-3-(4-(2-(3-methylmorpholino)-6-(2-(methylsulfonyl)phenyl)pyrimidin-4-yl)phenyl)urea] | IC50 (kinases (kinome) [2]): > 10 µM; IC50 (kinases (kinome) [3]): > 10 µM; IC50 (kinases (kinome) [7]): > 10 µM
3 | – | – | – | – | – | C[C@H]1COCCN1c1nc(-c2ccc(NC(=O)NC3CC3)cc2)cc(-c2cccnc2S(C)(=O)=O)n1 [Example 46, (S)-1-cyclopropyl-3-(4-(2-(3-methylmorpholino)-6-(2-(methylsulfonyl)pyridin-3-yl)pyrimidin-4-yl)phenyl)urea] | IC50 (kinases (kinome) [8]): > 10 µM
4 | – | – | – | > 10 µM | – | C[C@H]1COCCN1c1nc(-c2ccc(NC(=O)N[C@H]3CCC[C@@H]3O)cc2)cc(-c2cc(F)ccc2S(C)(=O)=O)n1 [Example 76, 1-(4-(6-(5-fluoro-2-(methylsulfonyl)phenyl)-2-((S)-3-methylmorpholino)pyrimidin-4-yl)phenyl)-3-((1S,2S)-2-hydroxycyclopentyl)urea] | –
5 | – | – | – | – | > 10 µM | C[C@H]1COCCN1c1cc(-c2ccccn2)nc(-c2ccc(NC(=O)NCCO)cc2)n1 [Example 43, (S)-1-(2-hydroxyethyl)-3-(4-(4-(3-methylmorpholino)-6-(pyridin-2-yl)pyrimidin-2-yl)phenyl)urea] | –
6 | > 10 µM | > 10 µM | > 10 µM | > 10 µM | > 10 µM | C[C@H]1COCCN1c1nc(-c2ccc(NC(=O)NC3CC3)cc2)cc(-c2cc(F)ccc2S(C)(=O)=O)n1 [Example 40, (S)-1-cyclopropyl-3-(4-(6-(5-fluoro-2-(methylsulfonyl)phenyl)-2-(3-methylmorpholino)pyrimidin-4-yl)phenyl)urea] | IC50 (kinases (kinome) [11]): > 10 µM; IC50 (kinases (kinome) [12]): > 10 µM; IC50 (kinases (kinome) [13]): > 10 µM; IC50 (kinases (kinome) [14]): > 10 µM
